From PubChem BioAssay AID2060505 (Molecular Pharmacology Branch, DTP, NCI, 2025)
pIC50: −log10 of the molar value.

System: 633275-114-R-J1-PDC complex spheroids, viability
Experiment: Anticancer human tumor 633275-114-R-J1-PDC patient-derived endometrial adenocarcinoma cell line growth inhibition [GQUAD]
Settings: for pIC50: curve of first compound; for viability, T/C: stronger effect = lower value
From the text: DNA G-quadruplex Stabilizer Agents in Combinations in Complex Spheroids
A high-throughput screen of multi-cell type tumor spheroids was designed to identify active combinations of DNA G-quadruplex stabilizer agents and targeted small molecules. Complex spheroids include a stromal component modeled by human endothelial cells (HUVEC) and fibroblasts modeled by human mesenchymal stem cells (MSCs). The concentration ranges selected for each drug and investigational agent were based upon clinically achievable concentrations if the clinical Cmax of the agent was known.
Compounds. The drugs and investigational agents: pidnarulex (CX-5461; NSC782164), APTO-253 (NSC789042), BRACO-19 (NSC847499), peposertib (NSC802822), ceralasertib (NSC780249), elimusertib (NSC800525), camonsertib (NSC841442), AZD-1390 (NSC803789), olaparib (NSC753686), talazoparib (NSC767125), ART-558 (NSC835418), sotorasib (NSC818433), MRTX-1133 (NSC836407), SN-38 (NSC673596), topotecan (NSC609699), etoposide (NSC141540), doxorubicin (NSC123127), gemcitabine (NSC613327), 5-fluorouracil (NSC19893), paclitaxel (NSC125973), vemurafenib (NSC761431), panobinostat (NSC761190), R-306465 (JNJ-16241199; NSC773264), adavosertib (NSC754352), TP-3654 (NSC805149), carboplatin (NSC241240), KSQ-4279 (NSC840948), and staurosporine (NSC755774) were obtained from the National Cancer Institute (NCI) Developmental Therapeutics Program Chemical Repository (34). The FDA-approved anticancer drug set is available from the NCI Developmental Therapeutics Program. […] The stock solutions were prepared in dimethyl sulfoxide (DMSO, Sigma-Aldrich, St. Louis, MO, cat. D2650) at 800-fold the tested concentration and stored at -70 degrees C prior to their use. All drugs and investigational agents were tested over a range starting from a high concentration at or near the clinical Cmax and decreasing in half-log increments. If the clinical Cmax for an agent had not been determined, the highest concentration tested was 10 microM.
2.3 Cell Culture. All cells were maintained in an incubator at 37 degrees C and 5% CO2 with 95% humidity. The PDC lines were cultured according to standard operating procedures established by the NCI PDMR. All PDCs were thawed and cultured in Matrigel-coated flasks prepared with a working solution of 1X Ham's F-12 nutrient mix, without supplementation (Invitrogen, cat. 11765054), 100 U/mL penicillin-streptomycin (Invitrogen, cat. 15140122), and 2.5% Matrigel (Corning Inc., cat. 354248) for the first three passages. The 857933-349-R-J2-PDC line was cultured in 6C/Colon 1B media, which includes advanced DMEM/F-12 (Thermo Fisher Scientific, cat. 12634028), 10 mM HEPES (Thermo Fisher Scientific, cat. 15630080), 1X GlutaMAX supplement (Thermo Fisher Scientific, cat. 35050061), 0.1 mg/mL primocin (InvivoGen, cat. ant-pm-2), 10% defined fetal bovine serum, heat inactivated (HyClone Laboratories Inc., cat. SH30070.03HI), 50% L-WRN conditioned media (ATCC, cat. CRL-3276), 1.25 mM N-Acetyl-L-cysteine (Sigma-Aldrich, cat. A9165), 10 mM nicotinamide (Sigma-Aldrich, cat. N0636), 1X B-27 supplement (Thermo Fisher Scientific, cat. 17504044), 1X N-2 supplement (Thermo Fisher Scientific, cat. 17502048), 10 microM Y-27632 dihydrochloride (Tocris Bioscience, cat. 1254), and 50 ng/mL human EGF recombinant protein (Thermo Fisher Scientific, cat. PHG0311). The 485176-168-R4-J1-PDC line was cultured in Panc media, which includes all 6C/Colon 1B media components plus 100 ng/mL human FGF-10 (Thermo Fisher Scientific, cat. 100-26), 500 nM SB-431542 (Selleckchem, cat. S1067), and gastrin (Tocris, cat. 3006).
[…]

[1] = second compound 0.0316 µM, first compound 0.0316 µM
[2] = second compound 0.0316 µM, first compound 0.1 µM
[3] = second compound 0.0316 µM, first compound 0.316 µM
[4] = second compound 0.0316 µM, first compound 1 µM
[5] = second compound 0.0316 µM, first compound 3.16 µM
[6] = second compound 0.0316 µM, first compound 10 µM
[7] = second compound 0.1 µM, first compound 0.0316 µM
[8] = second compound 0.1 µM, first compound 0.1 µM
[9] = second compound 0.1 µM, first compound 0.316 µM
[10] = second compound 0.1 µM, first compound 1 µM
[11] = second compound 0.1 µM, first compound 3.16 µM
[12] = second compound 0.1 µM, first compound 10 µM
[13] = second compound 0.316 µM, first compound 0.0316 µM
[14] = second compound 0.316 µM, first compound 0.1 µM
[15] = second compound 0.316 µM, first compound 0.316 µM
[16] = second compound 0.316 µM, first compound 1 µM
[17] = second compound 0.316 µM, first compound 3.16 µM
[18] = second compound 0.316 µM, first compound 10 µM
[19] = second compound 1 µM, first compound 0.0316 µM
[20] = second compound 1 µM, first compound 0.1 µM
[21] = second compound 1 µM, first compound 0.316 µM
[22] = second compound 1 µM, first compound 1 µM
[23] = second compound 1 µM, first compound 3.16 µM
[24] = second compound 1 µM, first compound 10 µM
[25] = second compound 3.16 µM, first compound 0.0316 µM
[26] = second compound 3.16 µM, first compound 0.1 µM
[27] = second compound 3.16 µM, first compound 0.316 µM
[28] = second compound 3.16 µM, first compound 1 µM
[29] = second compound 3.16 µM, first compound 3.16 µM
[30] = second compound 3.16 µM, first compound 10 µM
[31] = second compound 10 µM, first compound 0.0316 µM
[32] = second compound 10 µM, first compound 0.1 µM
[33] = second compound 10 µM, first compound 0.316 µM
[34] = second compound 10 µM, first compound 1 µM
[35] = second compound 10 µM, first compound 3.16 µM
[36] = second compound 10 µM, first compound 10 µM
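Also: spheroids exposed to the agents for seven days.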
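For viability, T/C in this document: percent of DMSO vehicle control viability which is 100%.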

CC(C)n1c(=O)n(C)c2cnc3cc(F)c(-c4ccc(OCCCN5CCCCC5)nc4)cc3c21 + CN(C)c1ccc(Nc2c3ccc(NC(=O)CCN4CCCC4)cc3nc3cc(NC(=O)CCN4CCCC4)ccc23)cc1
pIC50 (second compound 0.0316 µM): < 5.00
pIC50 (second compound 0.1 µM): < 5.00
pIC50 (second compound 0.316 µM): < 5.00
pIC50 (second compound 1 µM): < 5.00
pIC50 (second compound 3.16 µM): 5.59
pIC50 (second compound 10 µM): > 7.50
viability, T/C [1]: 115%
viability, T/C [2]: 109%
viability, T/C [3]: 102%
viability, T/C [4]: 109%
viability, T/C [5]: 102%
viability, T/C [6]: 67.9%
viability, T/C [7]: 102%
viability, T/C [8]: 115%
viability, T/C [9]: 98.2%
viability, T/C [10]: 97.4%
viability, T/C [11]: 97.4%
viability, T/C [12]: 65.1%
viability, T/C [13]: 102%
viability, T/C [14]: 104%
viability, T/C [15]: 98.7%
viability, T/C [16]: 101%
viability, T/C [17]: 86.1%
viability, T/C [18]: 70.7%
viability, T/C [19]: 99.8%
viability, T/C [20]: 98.3%
viability, T/C [21]: 113%
viability, T/C [22]: 78.4%
viability, T/C [23]: 85.1%
viability, T/C [24]: 63.5%
viability, T/C [25]: 84.4%
viability, T/C [26]: 81.2%
viability, T/C [27]: 60.4%
viability, T/C [28]: 64.5%
viability, T/C [29]: 50.3%
viability, T/C [30]: 32.3%
viability, T/C [31]: 29%
viability, T/C [32]: 28.8%
viability, T/C [33]: 22.1%
viability, T/C [34]: 21.5%
viability, T/C [35]: 17.9%
viability, T/C [36]: 9.88%

CC1COCCN1c1cc(-c2ccnn2C)c2ccnc(-c3ccn[nH]3)c2n1 (centres undefined) + CN(C)c1ccc(Nc2c3ccc(NC(=O)CCN4CCCC4)cc3nc3cc(NC(=O)CCN4CCCC4)ccc23)cc1
pIC50 (second compound 0.0316 µM): 6.87
pIC50 (second compound 0.1 µM): 6.79
pIC50 (second compound 0.316 µM): 6.76
pIC50 (second compound 1 µM): 6.84
pIC50 (second compound 3.16 µM): 7.04
pIC50 (second compound 10 µM): > 7.50
viability, T/C [1]: 77%
viability, T/C [2]: 54.4%
viability, T/C [3]: 37.3%
viability, T/C [4]: 26.1%
viability, T/C [5]: 18%
viability, T/C [6]: 18.4%
viability, T/C [7]: 92.4%
viability, T/C [8]: 59.6%
viability, T/C [9]: 37.1%
viability, T/C [10]: 24.8%
viability, T/C [11]: 18.9%
viability, T/C [12]: 18.9%
viability, T/C [13]: 82.2%
viability, T/C [14]: 61.1%
viability, T/C [15]: 37.7%
viability, T/C [16]: 25.9%
viability, T/C [17]: 19.4%
viability, T/C [18]: 14.9%
viability, T/C [19]: 74.1%
viability, T/C [20]: 55.2%
viability, T/C [21]: 38.3%
viability, T/C [22]: 23.5%
viability, T/C [23]: 18.1%
viability, T/C [24]: 16.2%
viability, T/C [25]: 60.3%
viability, T/C [26]: 49.6%
viability, T/C [27]: 33.4%
viability, T/C [28]: 22.2%
viability, T/C [29]: 15.8%
viability, T/C [30]: 11.4%
viability, T/C [31]: 30.3%
viability, T/C [32]: 23.5%
viability, T/C [33]: 15.9%
viability, T/C [34]: 12.5%
viability, T/C [35]: 10.4%
viability, T/C [36]: 9.22%
